Source: US20060008800A1, “Unc-13 in the modulation of neurotransmission and secretion events” (priority 2002, published 2006)

Columns and labels:
[1] = system: NMDA receptors; experiment: Use dependent block of synaptic NMDA EPSCs by MK-801; type: cell-based, mouse; details: 5 μM; 120 evoked NMDA EPSCs; Munc13-1 deficient neurons
[2] = system: NMDA receptors; details: cited from earlier work
[3] = system: hippocampal neurons; experiment: Readily releasable vesicle pool size by hypertonic sucrose application; type: cell-based, mouse; details: in response to PDBU
Experimental: Microisland culture preparation was performed according to Bekkers and Stevens (1991). The extracellular medium contained (mM): NaCl, 167; KCl, 2.4; HEPES, 10; glucose, 10; CaCl2, 4; MgCl2, 4 (340 mOsm, pH 7.3). Solutions were applied and recordings were performed as described in Rosenmund (1995). To examine synaptically activated currents, experiments were performed using recurrent synapses (autapses) or only single autaptic neuroeses on microisland cultures at room temperature (=24° C.). Pipette solutions included (mM): KCl, 120, or K-Gluconate, 125; HEPES, 10; EGTA, 1; MgCl2, 4.6; Na4ATP, 4; Creatinephosphate, 15; creatinephosphokinase 50 U/ml (320 mOsm, pH 7.3). […] In this autaptic culture system, where isolated nerve cells make multiple synaptic contacts, so called autapses, with their own dendritic trees, spontaneous transmitter release, release of the readily releasable vesicle pool induced by hypertonic solutions, and action potential evoked release arise from the same synapse population and can be measured readily with patch clamp techniques. […]
Synaptic depression in wild type neurons has been interpreted as depletion of the readily releasable pool of vesicles because pool sizes and synaptic responses are reduced in parallel during high frequency stimulation. […]

[4] = system: hippocampal neurons; experiment: β-phorbol ester induced potentiation of evoked synaptic currents in autaptic neuron cultures (patch clamp); type: cell-based, mouse; details: for β-phorbol ester induced EPSC potentiation (synaptic potentiation): PDBU 100-1000 nM; for EPSC potentiation: PDBU
Experimental: Microisland culture preparation was performed according to Bekkers and Stevens (1991). The extracellular medium contained (mM): NaCl, 167; KCl, 2.4; HEPES, 10; glucose, 10; CaCl2, 4; MgCl2, 4 (340 mOsm, pH 7.3). Solutions were applied and recordings were performed as described in Rosenmund (1995). To examine synaptically activated currents, experiments were performed using recurrent synapses (autapses) or only single autaptic neuroeses on microisland cultures at room temperature (=24° C.). Pipette solutions included (mM): KCl, 120, or K-Gluconate, 125; HEPES, 10; EGTA, 1; MgCl2, 4.6; Na4ATP, 4; Creatinephosphate, 15; creatinephosphokinase 50 U/ml (320 mOsm, pH 7.3). Wild type and Munc13-1 deficient glutamatergic hippocampal neurons were used to study the characteristics of Munc13-1 and Munc13-1 independent synapses. For these purposes, individual neurons grown on microisland beds of glial cells (Bekkers, 1991) were employed. In this autaptic culture system, where isolated nerve cells make multiple synaptic contacts, so called autapses, with their own dendritic trees, spontaneous transmitter release, release of the readily releasable vesicle pool induced by hypertonic solutions, and action potential evoked release arise from the same synapse population and can be measured readily with patch clamp techniques. Autaptic responses were obtained after brief (1-2 ms) somatic depolarization. This induces an unclamped action potential that is followed by a postsynaptic response with a delay of 2-4 ms. Excitatory, glutamatergic and inhibitory, GABAergic synaptic currents were distinguished by their characteristic pharmacological and kinetic properties. Excitatory glutamatergic cells were mainly characterized because the differential equipment of presynaptic terminals formed by the same axon with Munc13 priming factors is not apparent in GABAergic neurons.
Design of and infection with Semliki Forest Virus was done according to published procedures (Betz, 2001; Ashery, 2000). Cells were measured 22-26 h after infection.
Routinely, cells from Munc13-1^H567K/Munc13-1^H567K mutants were analyzed 12-20 day after plating and compared to wild type control cells obtained from littermates. In some experiments we employed Munc13-1/Munc13-2 double deficient neurons as model cells to study the characteristics of the Munc13-1^H567K variant in comparison to wild type Munc13-1 following overexpression using the Semliki-Forest-Virus system. In contrast to Munc13-1 deficient glutamatergic hippocampal neurons, which still show measurable glutamate release (10% of wild type levels; Augustin, 1999b), double homozygous Munc13-1/Munc13-2 deletion mutant neurons are characterized by a complete lack of spontaneous and evoked transmitter release but can be rescued by reintroduction of Munc13 proteins. This rescue approach was persued in Munc13-1/Munc13-2 double mutant neurons instead of breeding the Munc13-1^H567K/Munc 3-1^H567K mutation into the Munc13-2 deletion mutant background because it was much faster and allowed the direct comparison of additional mutant (Betz, 2001) and wild type Munc13-1 variants in the same cultures. Autaptic responses were obtained after brief (1-2 ms) somatic depolarization. This induces an unclamped action potential that is followed by a postsynaptic response with a delay of 2-4 ms. Excitatory, glutamatergic synaptic currents were identified by their characteristic pharmacological and kinetic properties.

[5] = system: hippocampal neurons; experiment: Effect of PDBU on mEPSC frequency in autaptic neurons; type: cell-based, mouse; details: 1 μM PDBU
Experimental: Microisland culture preparation was performed according to Bekkers and Stevens (1991). The extracellular medium contained (mM): NaCl, 167; KCl, 2.4; HEPES, 10; glucose, 10; CaCl2, 4; MgCl2, 4 (340 mOsm, pH 7.3). Solutions were applied and recordings were performed as described in Rosenmund (1995). To examine synaptically activated currents, experiments were performed using recurrent synapses (autapses) or only single autaptic neuroeses on microisland cultures at room temperature (=24° C.). Pipette solutions included (mM): KCl, 120, or K-Gluconate, 125; HEPES, 10; EGTA, 1; MgCl2, 4.6; Na4ATP, 4; Creatinephosphate, 15; creatinephosphokinase 50 U/ml (320 mOsm, pH 7.3). Wild type and Munc13-1 deficient glutamatergic hippocampal neurons were used to study the characteristics of Munc13-1 and Munc13-1 independent synapses. […] In this autaptic culture system, where isolated nerve cells make multiple synaptic contacts, so called autapses, with their own dendritic trees, spontaneous transmitter release, release of the readily releasable vesicle pool induced by hypertonic solutions, and action potential evoked release arise from the same synapse population and can be measured readily with patch clamp techniques. […]
Routinely, cells from Munc13-1^H567K/Munc13-1^H567K mutants were analyzed 12-20 day after plating and compared to wild type control cells obtained from littermates. […]

[6] = system: PKCs; type: cell-based, mouse
[7] = system: Munc13-1 deficient hippocampal neurons; experiment: EPSC augmentation following high frequency action potential trains in Munc13-1 deficient, Munc13-2 dependent neurons; type: cell-based, mouse; details: 1 μM PDBU; Munc13-2 dependent cells
[8] = Munc13-1 dominated wild type synapses
[9] = 1 μM PDBU, Munc13-1^H567K/Munc13-1^H567K neurons
[10] = after 1 μM PDBU, wildtype neurons

## C[C@]12N[C@H](Cc3ccccc31)c1ccccc12 [MK-801]
[1]
  reduction of the NMDA EPSC component: more than 90%
[2]; Munc13-1 deficient cells
  synaptic NMDA receptors activated and blocked during synaptic activity: 20%
[2]; wild type cells
  cellular NMDA receptors activated and blocked during synaptic activity: 75%

## CCCC(=O)O[C@@H]1[C@@H](C)[C@@]2(O)[C@@H](C=C(CO)C[C@]3(O)C(=O)C(C)=C[C@@H]23)[C@@H]2C(C)(C)[C@]12OC(=O)CCC [PDBU]
[3]; [8]
  increase of readily releasable vesicle pool: 11±5%
[3]; Munc13-2 dependent synapses
  increase of readily releasable vesicle pool: 30±15%
[4]; 1 μM PDBU alone, wild type neurons (GÖ 6983 experiment)
  β-PE induced increase in evoked EPSCs: 160±9 % of baseline values
[4]; 1 μM PDBU for 1 min, wild type neurons, before bisindolylmaleimide I
  increase of evoked EPSC amplitudes over baseline value: 90±19%
[4]; 1 μM PDBU for one minute, wildtype neurons
  evoked EPSC amplitudes: 191±17 % of baseline values
[4]; 1 μM PDBU, Munc13-1/Munc13-2 double deficient cells overexpressing Munc13-1^H567K
  evoked EPSCs: 108±5 % of control levels
[4]; 1 μM PDBU, Munc13-1/Munc13-2 double deficient neurons overexpressing wild type Munc13-1
  evoked EPSCs: 246±22 % of control levels
[4]; [9]
  evoked EPSC amplitudes: 131±7 % of baseline values
  time constant of increase in evoked EPSC amplitudes: 16 s
[4]; 1 μM PDBU, wildtype neurons
  time constant of enhancement of evoked EPSC amplitudes: 8 s
[4]; PDBU 1 μM, rescue with C1-DAG binding mutant ubMunc13-2(H491K)
  phorbol ester induced potentiation of evoked responses: 1.04±0.03
[4]; PDBU 1 μM, rescue with Calmodulin binding deficient mutant ubMunc13-2(W387R)
  phorbol ester induced potentiation of evoked responses: 2.9±0.4 fold
[4]; Munc13-1 deficient, Munc13-2 dependent synapses
  β-phorbol ester induced EPSC potentiation (synaptic potentiation): 570±118%
[4]; [8]
  β-phorbol ester induced EPSC potentiation (synaptic potentiation): 199±25%
[4]; PDBU at 1 μM for 1 minute, double deficient neurons rescued with wildtype ubMunc13-2
  phorbol ester induced potentiation of evoked responses: 3.9±1.1 fold
[4]; Munc13-1/Munc13-2 double deficient neurons rescued with Munc13-1
  EPSC potentiation: 247±22%
[4]; Munc13-1/Munc13-2 double deficient neurons rescued with ubMunc13-2
  EPSC potentiation: 510±83%
[4]; [10]
  time constant of return to baseline after removal: 27 s
  time for synaptic amplitude to return to baseline after removal: 3 to 4 min
[4]; compared with EPSCs, wild type and Munc13-1 deficient neurons
  β-Phorbol ester induced potentiation of IPSCs: much less pronounced
[4]; rescue with ubMunc13-2 deletion construct lacking the first 400 amino acids
  phorbol ester response: 4.5±1.3 fold increase
[5]; Munc13-1^H567K/Munc13-1^H567K cells
  mEPSC frequency: 127±16 % of control levels
[5]; wildtype neurons
  mEPSC frequency: 239±34 % of control levels
[6]
  phosphorylation of Munc13-1: weakly phosphorylated in a constitutive, β-PE independent manner
  phosphorylation of SNAP-25 and GAP-43: strongly phosphorylated
[7]
  additivity of β-phorbol ester induced potentiation and train induced augmentation: not additive
